Assays:
Format in all cases: in vivo
[1] = tested on: ragweed (common ragweed, Ambrosia elatior); assay: Test A preemergence; conditions: Ambrosia artemisiifolia, pre-emergence, 240 h, preemergence, 0 to 100 scale where 0 is no effect and 100 is complete control, read-out: Ragweed plant response rating
Outline: (§1)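 Compounds were formulated in a non-phytotoxic solvent mixture with surfactant and applied as a preemergence directed soil spray after seeding, or sprayed postemergence over plants 2 to 10 cm tall at the one- to two-leaf stage. Evaluation after about 10 d compared treated with untreated controls, using a scale from 0 (no effect) to 100 (complete control).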

[2] = tested on: pigweed (Amaranthus retroflexus); assay: Test A preemergence; conditions: Amaranthus retroflexus, pre-emergence, 240 h, preemergence, 0 to 100 scale where 0 is no effect and 100 is complete control, read-out: Pigweed plant response rating
Kochia (Kochia scoparia) [3] = assay: Test A preemergence; conditions: Bassia scoparia, pre-emergence, 240 h, preemergence, 0 to 100 scale where 0 is no effect and 100 is complete control, read-out: Kochia plant response rating
Outline: as §1

[4] = tested on: giant foxtail (Setaria faberii); assay: Test A preemergence; conditions: Setaria faberi, pre-emergence, 240 h, preemergence, 0 to 100 scale where 0 is no effect and 100 is complete control, read-out: Foxtail, Giant plant response rating
Outline: as §1

[5] = tested on: barnyardgrass (Echinochloa crus-galli); assay: Test A preemergence; conditions: Echinochloa crus-galli, pre-emergence, 240 h, preemergence, 0 to 100 scale where 0 is no effect and 100 is complete control, read-out: Barnyardgrass plant response rating
Outline: as §1

[6] = tested on: ryegrass, Italian (Italian ryegrass, Lolium multiflorum); assay: Test A preemergence; conditions: Lolium multiflorum, pre-emergence, 240 h, preemergence, 0 to 100 scale where 0 is no effect and 100 is complete control, read-out: Ryegrass, Italian plant response rating
Outline: as §1

[7] = tested on: Galium (catchweed bedstraw, Galium aparine); assay: Test A postemergence; conditions: Galium, post-emergence, 240 h, postemergence
Outline: as §1

[8] = tested on: blackgrass (Alopecurus myosuroides); assay: Test A postemergence; conditions: Alopecurus myosuroides, post-emergence, 240 h, postemergence
Outline: as §1

[9] = tested on: ragweed (common ragweed, Ambrosia elatior); assay: Test A postemergence; conditions: Ambrosia artemisiifolia, post-emergence, 240 h, postemergence
Outline: as §1

corn (Zea mays) = assay: Test A postemergence; conditions: Zea mays, post-emergence, 240 h, postemergence
Outline: as §1

[10] = tested on: pigweed (Amaranthus retroflexus); assay: Test A postemergence; conditions: Amaranthus retroflexus, post-emergence, 240 h, postemergence
Outline: as §1

Kochia (Kochia scoparia) [11] = assay: Test A postemergence; conditions: Bassia scoparia, post-emergence, 240 h, postemergence
Outline: as §1

[12] = tested on: wheat (Triticum aestivum); assay: Test A postemergence; conditions: Triticum aestivum, post-emergence, 240 h, 125 g ai/ha, postemergence, visual injury vs untreated controls after approx. 10 d; 0 = no effect, 100 = complete control; read-out: Wheat plant response rating (0 to 100 scale)
Outline: as §1

[13] = tested on: giant foxtail (Setaria faberii); assay: Test A postemergence; conditions: Setaria faberi, post-emergence, 240 h, postemergence
Outline: as §1

[14] = tested on: barnyardgrass (Echinochloa crus-galli); assay: Test A postemergence; conditions: Echinochloa crus-galli, post-emergence, 240 h, postemergence
Outline: as §1

[15] = 125 g ai/ha, visual injury rating, approximately 10 d

O=C1NC[C@H](c2cccc(C(F)(F)F)c2)C1C(=O)Nc1c(F)cccc1CO (some centres unmarked) [Compound 1240]
0%: pest or weed control at 125 g/ha [1, 15] | pest or weed control at 500 g/ha ([1]; 500 g ai/ha) | pest or weed control at 125 g/ha [2, 15] | pest or weed control at 500 g/ha ([2]; 500 g ai/ha) | pest or weed control at 125 g/ha (Kochia (Kochia scoparia) [3]; [15]) | pest or weed control at 500 g/ha (Kochia (Kochia scoparia) [3]; 500 g ai/ha) | pest or weed control at 125 g/ha [4, 15] | pest or weed control at 500 g/ha ([4]; 500 g ai/ha) | pest or weed control at 125 g/ha [5, 15] | pest or weed control at 500 g/ha ([5]; 500 g ai/ha) | pest or weed control at 125 g/ha [6, 15] | pest or weed control at 500 g/ha ([6]; 500 g ai/ha) | pest or weed control at 125 g/ha ([7]; 125 g ai/ha, visual injury vs untreated controls after approx. 10 d, 0 = no effect, 100 = complete control, read-out: Galium plant response rating (0 to 100 scale)) | pest or weed control at 500 g/ha ([7]; 500 g ai/ha, 0 to 100 scale, 0 is no effect, 100 is complete control, read-out: Galium plant response rating) | pest or weed control at 125 g/ha ([8]; 125 g ai/ha, visual injury vs untreated controls after approx. 10 d, 0 = no effect, 100 = complete control, read-out: Blackgrass plant response rating (0 to 100 scale)) | pest or weed control at 500 g/ha ([8]; 500 g ai/ha, 0 to 100 scale, 0 is no effect, 100 is complete control, read-out: Blackgrass plant response rating) | pest or weed control at 125 g/ha ([9]; 125 g ai/ha, visual injury vs untreated controls after approx. 10 d, 0 = no effect, 100 = complete control, read-out: Ragweed plant response rating (0 to 100 scale)) | pest or weed control at 500 g/ha ([9]; 500 g ai/ha, 0 to 100 scale, 0 is no effect, 100 is complete control, read-out: Ragweed plant response rating) | plant injury at 125 g/ha (corn (Zea mays); 125 g ai/ha, visual injury vs untreated controls after approx. 10 d, 0 = no effect, 100 = complete control, read-out: Corn plant response rating (0 to 100 scale)) | plant injury at 500 g/ha (corn (Zea mays); 500 g ai/ha, 0 to 100 scale, 0 is no effect, 100 is complete control, read-out: Corn plant response rating) | pest or weed control at 125 g/ha ([10]; 125 g ai/ha, visual injury vs untreated controls after approx. 10 d, 0 = no effect, 100 = complete control, read-out: Pigweed plant response rating (0 to 100 scale)) | pest or weed control at 500 g/ha ([10]; 500 g ai/ha, 0 to 100 scale, 0 is no effect, 100 is complete control, read-out: Pigweed plant response rating) | pest or weed control at 125 g/ha (Kochia (Kochia scoparia) [11]; 125 g ai/ha, visual injury vs untreated controls after approx. 10 d, 0 = no effect, 100 = complete control, read-out: Kochia plant response rating (0 to 100 scale)) | pest or weed control at 500 g/ha (Kochia (Kochia scoparia) [11]; 500 g ai/ha, 0 to 100 scale, 0 is no effect, 100 is complete control, read-out: Kochia plant response rating) | plant injury at 125 g/ha [12] | pest or weed control at 125 g/ha ([13]; 125 g ai/ha, visual injury vs untreated controls after approx. 10 d, 0 = no effect, 100 = complete control, read-out: Foxtail, Giant plant response rating (0 to 100 scale)) | pest or weed control at 500 g/ha ([13]; 500 g ai/ha, 0 to 100 scale, 0 is no effect, 100 is complete control, read-out: Foxtail, Giant plant response rating) | pest or weed control at 125 g/ha ([14]; 125 g ai/ha, visual injury vs untreated controls after approx. 10 d, 0 = no effect, 100 = complete control, read-out: Barnyardgrass plant response rating (0 to 100 scale)) | pest or weed control at 500 g/ha ([14]; 500 g ai/ha, 0 to 100 scale, 0 is no effect, 100 is complete control, read-out: Barnyardgrass plant response rating)

From US12077503B2, “Substituted cyclic amides and their use as herbicides” (FMC CORPORATION, priority 2015, dated 2024)
